Patent US7608761B2, “Method for disease control in MON89788 soybean” (Monsanto Technology LLC, priority 2005, dated 2009)

Tests used:
[1] = system: Cercospora leaf blight; assay: Greenhouse disease severity on MON89788, Cercospora leaf blight; assay type: in vivo, Cercospora carotae; design: key to Cercospora Leaf Blight disease severity (DS): 1 = no symptoms; 2 = ≤10% leaf infected … 9 = >85% leaf infected; conditions: 1-9 scale
Experimental: (§1) Soybean plants comprising event MON89788 and grown under standard conditions in a greenhouse were treated with 1×, 2× or 3× concentrations of glyphosate and inoculated with the plant pathogens 1 DBI, 1 DAI and 4 DAI. Disease symptoms for each disease was rated on a 1-9 scale as an approximate measure of disease severity (DS)occurring on the leaves, 1 is no symptoms, 2 is up to 10% of the leaf infected, 3 is 11-20% of the leaf infected, 4 is 21-35%, 5 is 36-50%, 7 is 66-75%, 8 is 76-85%, 9 is greater than 85% of the leaf is infected and showing disease symptoms.

[2] = system: Cercospora leaf blight (Cercospora carotae); assay: as above; assay type: in vivo; design: key to Cercospora Leaf Blight disease severity (DS): 1 = no symptoms; 2 = ≤10% leaf infected … 9 = >85% leaf infected; conditions: 1×, 2× or 3×; 1 DBI, 1 DAI and 4 DAI
Experimental: as §1

[3] = system: Asian Soybean Rust (ASR) (Loxley Al isolate); assay: Growth chamber detached soybean leaf assay, ASR on MON89788; assay type: in vivo, Phakopsora sp.
Experimental: Growth chamber and greenhouse assays were conducted to determine if glyphosate treatments (Roundup® WeatherMax) decreased the disease severity of Asian Soybean Rust (ASR) on MON89788. Growth chamber assays were conducted following a detached leaf assay method. Plants of MON89788 were grown in the greenhouse and leaves from the 3rd trifoliate were detached and placed in 6-well trays with water. Five treatments were evaluated: (1) an untreated check inoculated with spores of ASR (Loxley Al isolate); (2) leaf tissue of MON89788 inoculated with ASR spores and treated with glyphosate post-sporulation (13 days after inoculation with spores (DAI)); (3) MON89788 treated with 1× rate (0.75 lb/acre) of Roundup® WeatherMax 5 DAI; (4) MON89788 treated with […] of Roundup® WeatherMax 5 DAI; and (5) MON89788 treated with 3× rate of Roundup® WeatherMax 5 DAI.
The leaves were rated for disease severity 12 DAI, 20 DAI, and 25 DAI.
The analysis of the disease progression is illustrated in FIG. 2 and measured as the Area Under Disease Progress Curve (AUDPC) for the same material summarized in FIG. 1. […] The disease progression was reduced for all glyphosate treatments at 5DAI and the 2× rate post-sporulation.

[4] = system: Frogeye Leafspot (Cercospora sojina); assay: Greenhouse disease severity on MON89788, Frogeye Leafspot; assay type: in vivo; design: key to Frogeye disease severity (DS): 1 = no symptoms; 2 = ≤10% leaf infected … 9 = >85% leaf infected; conditions: for Frogeye disease severity (DS): 1-9 scale
Experimental: as §1

[5] = system: powdery mildew disease; assay: Powdery mildew disease control on MON89788; assay type: in vivo, Microsphaera diffusa; conditions: for DS Mean (powdery mildew): treated 1 DBI, no spray control 4.65
Source text: The mean disease severity score for the no spray control was 4.65, the glyphosate treatments provided a high level of disease control at all treatment rates.

[6] = system: Asian Soybean Rust (ASR); assay: Greenhouse assay on intact MON89788 plants, ASR; assay type: in vivo, Phakopsora sp.
Experimental: Greenhouse assays on intact MON89788 plants were treated with 1×, 2×, and 3× rates of Roundup® WeatherMax at 6 DBI (days before inoculation) and 9 DAI. Results for this experiment were collected 17 DAI.

[7] = system: Aerial blight (Rhizoctonia solani); assay: Greenhouse disease severity on MON89788, Aerial blight; assay type: in vivo; conditions: for Aerial Blight disease severity (DS): 1-9 scale
Experimental: as §1

[8] = 1×, 2× or 3×, 1 DBI, 1 DAI and 4 DAI

In the case of `O=C(O)CNCP(=O)(O)O` [glyphosate, N-phosphonomethylglycine], the “Cercospora Leaf Blight disease severity (DS)” value ([1]; 1 day post inoculation, 1X) is reported as 2.8, the “Cercospora Leaf Blight disease severity (DS)” value ([1]; 1 day post inoculation, 2X) is reported as 6.4 and the “Cercospora Leaf Blight disease severity (DS)” value ([1]; 1 day post inoculation, 3X) is reported as 6.5. For the same compound, the “Cercospora Leaf Blight disease severity (DS)” value ([1]; 1 day pre inoculation, 1X) was 2.8, the “Cercospora Leaf Blight disease severity (DS)” value ([1]; 1 day pre inoculation, 2X) was 6.1 and the “Cercospora Leaf Blight disease severity (DS)” value ([1]; 1 day pre inoculation, 3X) was 3.8. The “Cercospora Leaf Blight disease severity (DS)” value ([1]; 4 days post inoculation, 1X) was 3.3, the “Cercospora Leaf Blight disease severity (DS)” value ([1]; 4 days post inoculation, 2X) was 3.2 and the “Cercospora Leaf Blight disease severity (DS)” value ([1]; 4 days post inoculation, 3X) was 4.9. The “disease severity control, Cercospora leaf blight” value [2] was “preventative and curative disease severity control”, the “Area Under Disease Progress Curve (AUDPC)” value ([3]; 2× rate) was “lower compared to other treatments” and the “disease progression (AUDPC)” value ([3]; 2× rate post-sporulation) was “reduced”. For the same compound, the “Area Under Disease Progress Curve (AUDPC)” value ([3]; 3× rate) was “lower compared to other treatments”, the “disease progression (AUDPC)” value ([3]; all glyphosate treatments at 5DAI) was “reduced” and the ASR sporulation ([3]; post-disease development/sporulation treatments) was “appeared to arrest sporulation”. The “Frogeye disease severity (DS)” value ([4]; 1 day post inoculation, 1X) was 3.4, the “Frogeye disease severity (DS)” value ([4]; 1 day post inoculation, 2X) was 3.3 and the “Frogeye disease severity (DS)” value ([4]; 1 day post inoculation, 3X) was 7.2. The “Frogeye disease severity (DS)” value ([4]; 1 day pre inoculation, 1X) was 2.7, the “Frogeye disease severity (DS)” value ([4]; 1 day pre inoculation, 2X) was 3.7 and the “Frogeye disease severity (DS)” value ([4]; 1 day pre inoculation, 3X) was 3.8. For the same compound, the “Frogeye disease severity (DS)” value ([4]; 4 days post inoculation, 1X) was 3.7, the “Frogeye disease severity (DS)” value ([4]; 4 days post inoculation, 2X) was 5.3 and the “Frogeye disease severity (DS)” value ([4]; 4 days post inoculation, 3X) was 2.3. For the same compound, the “disease severity control, Frogeye Leafspot” value [4, 8] was “preventative and curative disease severity control”, the “DS Mean (powdery mildew)” value ([5]; 0.75 lb ae/a (1X)) was 1 and the “DS Mean (powdery mildew)” value ([5]; 1.5 lb ae/a (2X)) was 1. The “DS Mean (powdery mildew)” value ([5]; 2.25 lb ae/a (3X)) was 1, the “control of powdery mildew disease” value ([5]; treated 1 DBI with any of the three rates) was “high level of control” and the “levels of ASR infection and disease” value ([6]; 1×, 2×, 3× at 6 DBI or 9 DAI, all except 1× at 6 DBI, collected 17 DAI) was “lower levels of ASR infection and disease”. The “rate of ASR disease development” value ([6]; pre-inoculation treatments) was “appeared to slow the rate of disease development”, the “levels of ASBR” value ([6]; split treatments (1× pre+1× post-inoculation)) was “reduced levels of ASBR similar to single 2× and 3× pre- or post-inoculation” and the “Aerial Blight disease severity (DS)” value ([7]; 1 day post inoculation, 1X) was 5.0. For the same compound, the “Aerial Blight disease severity (DS)” value ([7]; 1 day post inoculation, 2X) was 6.4, the “Aerial Blight disease severity (DS)” value ([7]; 1 day post inoculation, 3X) was 6.9 and the “Aerial Blight disease severity (DS)” value ([7]; 1 day pre inoculation, 1X) was 7.1. For the same compound, the “Aerial Blight disease severity (DS)” value ([7]; 1 day pre inoculation, 3X) was 8.0, the “Aerial Blight disease severity (DS)” value ([7]; 4 days post inoculation, 1X) was 7.6 and the “Aerial Blight disease severity (DS)” value ([7]; 4 days post inoculation, 2X) was 4.4. For the same compound, the “Aerial Blight disease severity (DS)” value ([7]; 4 days post inoculation, 3X) was 7.9 and the “disease severity control, Aerial blight” value [7, 8] was “preventative and curative disease severity control”.
